Assay results as given in patent publication US5574057A, “Naamidine A extracted from sea sponges and methods for its use as an anti-tumor agent” (priority 1994, dated 1996).
Entries after “also recorded” stand apart in the source; their conditions may differ.

Experiments:
[1] = test system: EGF-induced mitogenesis in EC25 cells (NIH3T3 cells transfected with the EGF receptor gene); assay: EGF mitogenic assay (3H-thymidine incorporation), EGF stimulation; format: cell-based, human
Excerpt: The assay to determine a compound's selectivity compares the level of inhibition of the targeted activity (EGF stimulation of cell growth) with the inhibition of insulin stimulated cell growth.
(§1) An in vitro bioassay, called the EGF mitogenic assay, was used to aid in the identification of antagonists of EGF dependent cell proliferation. The mitogenic response due to EGF is quantified by measuring the incorporation of ^3 H-thymidine into NIH3T3 cells (or "EC25 cells") that have been transfected with the EGF receptor gene. Stimulation of these cells with insulin is used as a "nonspecific" mitogen control. Samples were preincubated with the EC25 cells for one hour before the addition of the mitogen, then further incubated for 16 hours, and mitogenic stimulation assessed by a one hour incorporation of ^3 H-thymidine. The development of the EC25 cell line, and the EGF mitogenic assay in which it is used, is explained in greater detail in Velu, T. J. et al., "Epidermal Growth Factor-Dependent Transformation by a Human EGF Receptor Proto-Oncogene, " Science 238:1408-10 (1987).
(§2) The concentration at which control insulin stimulation is inhibited 50% by the test sample (IC50(insutin)) was calculated as was the same value for EGF (IC50(EGF)). These values were then used to calculate a specificity ratio which is IC50(insulin)/ IC50(EGF).
These activity criteria help determine which inhibitors are specific for the EGF signalling pathway.

[2] = test system: insulin stimulation of EC25 cells; assay: EGF mitogenic assay (3H-thymidine incorporation), insulin stimulation as nonspecific mitogen control; format: cell-based; settings: pure sample
Method: as §1, §2

[3] = test system: EGF receptor; assay: competition with binding of biotinylated EGF to A431 cells; parameters: species or system human; settings: up to 500 μg/ml
Method: Experimental Test 4. Presently, the mechanism of action of naamidine A for inhibition of the EGF signalling pathway is unknown. […] This assay measured the ability of naamidine A to compete with the binding of biotinylated EGF to the EGF receptor, which is highly over expressed in A431 human squamous cell carcinoma cells.
In the assay represented in FIG. 3, the A431 cells were incubated in the presence of either the EGF standard or naamidine A plus biotinylated EGF for one hour and the degree of inhibition of biotinylated EGF binding to the EGF receptor was quantified using a peroxidase-linked anti-biotin antibody. The solid circles (.circle-solid.) in FIG. 3 represent the level of binding of EGF to cell receptors when the cells are subjected to various levels of naamidine A. The open circles (.largecircle.) represent the level of binding of EGF to cell receptors when the cells are subjected to various levels of EGF, which is used as a positive control.

[4] = biological target: c-src tyrosine kinase (Homo sapiens, UniProt P12931); assay: c-src tyrosine kinase assay (phosphorylation of RCM lysozyme); format: biochemical; settings: isolated c-src, RCM lysozyme substrate, 30 minutes
Method: Experimental Test 5. […] In this assay, phosphorylation of the substrate RCM (reduced, carboxyamidomethylated and maleylated) lysozyme by c-src is quantified using a peroxidase-linked anti-phosphotyrosine antibody to determine the activity of this kinase.
The sample of naamidine A was incubated with the substrate RCM […], c-src enzyme, and ATP for 30 minutes, after which time the reaction was terminated and tyrosine phosphorylation was assessed using a peroxidase-linked antiphosphotyrosine antibody.

[5] = test system: human squamous cell carcinoma (A431); assay: first in vivo test, A431 xenograft in athymic mice, assessed 15 days after implantation (Experimental Test 7); parameters: species or system human tumor in athymic mice; settings: for % Inhibition of tumor growth: q1d×5;1, 15 days; for toxicity: 100 mg/kg
Method: Tumor growth was assessed by measuring the change in tumor size over a fifteen day period. Although naamidine A inhibited tumor growth, the inhibition was a modest 37%. Therefore, a second evaluation was carried out using a different schedule of treatment and evaluation.
J. Oncology, 1:293-298 (1992).
Tumor growth was calculated as FTS/ITS. […] Experimental Test 7.
The effect of naamidine A on the tumor was assessed 15 days after tumor implantation and there were six mice per treatment group.

[6] = test system: HCT116 colon cells
Method: In the XTT assay, cells are plated at 4000 cells/well in 96 well microtiter plates; 24 hours later the test drugs are added and serially diluted. The cells are incubated at 37° C. for 72 hours, at which time the tetrazolium dye, XTT, is added. A dehydrogenase enzyme in live cells reduces the XTT to a form that absorbs light at 450 nm which can be quantitated spectrophotometrically. The greater the absorbance the greater the number of live cells. The results are expressed as an IC50 which is the drug concentration required to inhibit cell proliferation (i.e., absorbance at 450 nm) to 50% of that of untreated control cells.

[7] = test system: human squamous cell carcinoma (A431); assay: second in vivo test, A431 xenograft in athymic mice, assessed 7 days after implantation (Experimental Test 8); settings: for % Inhibition of tumor growth: q1d×5;1, 7 days; for deaths: q1d×5;1, six mice per group
Method: In this test, the mice were treated with varying dosages of naamidine A for five days after implantation of the carcinoma. The tumors were then evaluated for growth activity seven days after implantation, as determined by the change in tumor size.
The model system used for these in vivo studies was a human squamous cell carcinoma (A431) that over expresses the EGF receptor, which was implanted into athymic mice.
According to Robinson et al., the A431 cell line was adapted to grow in female athymic mice by s.c. inoculation of 10^7 cultured cells into the axillary region. Tumors were passaged in female athymic mice by sterile dissection of solid tumors and s.c. implantation of tumor fragments into the axillary region.
Drug effects were calculated as the mean % inhibition the drug treatment produced on tumor growth when compared to control. Inhibition of >80% of tumor growth was considered a working criteria for "active".
In this second in vivo test, the length of time for tumor growth was shortened to seven days to more closely coincide with the time of drug treatment. Two groups of twelve mice each were treated with the standard antibody (MA225), while there were six mice per group treated with varying doses of naamidine A.
The tumor was exposed to the test agent (naamidine A) once a day for 5 days (q1 d×5; 1), which was nearly the entire length of the growth period of 7 days. During this time, the tumor would normally be expected to double about 1.5 times instead of 3 times for a 15 day period.
Under these conditions, doses ranging from 0.78 mg/kg to 50 mg/kg were given using the same dosing schedule as with the first experiment.

[8] = 25 mg/kg, listed as Naamidine A

naamidine A
activity in the EGF assay (in words) ([1]; EC25 cells): very good activity
IC50(EGF) ([1]; EC25 cells, EGF stimulation, pure sample): 4.8 µg/mL
IC50(insulin)/IC50(EGF) ratio ([1]; EC25 cells, specificity ratio): 22
specificity for EGF versus insulin stimulated response (in words) ([1]; tritiated thymidine incorporation after EGF or insulin stimulation): less potent in inhibiting insulin stimulated cell proliferation compared to EGF stimulated growth; also recorded: more specific for the EGF mediated mitogenic response than for the insulin mediated mitogenic response
selectivity in inhibiting EGF dependent growth relative to insulin dependent growth ([1]; tritiated thymidine incorporation, preliminary testing): about 22 times
IC50(insulin) [2]: 105.6 µg/mL
effect on binding of EGF to its receptor [3]: does not appear to affect the binding of EGF to its corresponding receptor cite; also recorded: did not appear to effect the binding of EGF to receptor sites
inhibition of c-src tyrosine kinase activity (in words) [4]: lack of c-src tyrosine kinase activity; also recorded: not inhibit the activity of the isolated c-src tyrosine kinase; also recorded: no significant inhibition of c-src tyrosine kinase activity
% Inhibition of tumor growth ([5]; 1.6 mg/kg): 36.6%
% Inhibition of tumor growth ([5]; 6.25 mg/kg): 32.2%
% Inhibition of tumor growth ([5]; 25 mg/kg): 37%
% Inhibition of tumor growth [5, 8]: 37.1%
net reduction in tumor cell growth ([5]; first in vivo test, 15 days, includes period of regrowth): 30-40%
toxicity ([5]; mice, q1d×5;1): toxic to the mice
toxicity ([5]; mice, q1d×5;1, listed as Naamidine A): toxic (multiple deaths)
maximally tolerated dose ([5]; mice, q1d×5;1, 21600 min): 25 mg/kg
general in vitro cytotoxicity (in words) [6]: relatively low general in vitro cytotoxicity
IC50 ([6]; HCT116, XTT, 72 hours): 31 µg/mL
% Inhibition of tumor growth ([7]; 1.56 mg/kg): 47.9%
% Inhibition of tumor growth ([7]; 3.13 mg/kg): 35%
% Inhibition of tumor growth ([7]; 6.25 mg/kg): -7.5%
% Inhibition of tumor growth ([7]; 12.5 mg/kg): 52%
% Inhibition of tumor growth ([7]; 25 mg/kg): at least 85%
% Inhibition of tumor growth [7, 8]: 87.4%
% Inhibition of tumor growth ([7]; 50 mg/kg): 96.4%
deaths (in words) ([7]; mice, 25 mg/kg): death of one mouse
deaths ([7]; mice, 25 mg/kg): 1 death
toxicity (in words) ([7]; mice, 50 mg/kg): toxic to many of the mice
deaths ([7]; mice, 50 mg/kg): 2 deaths
maximal tolerated dose ([7]; mice, q1d×5;1, 10080 min): 25 mg/kg
LD-10 (dose at which 10% of the mice died) ([7]; mice, q1d×5;1, roughly estimated from Experimental Test 8): about 25 mg/kg
Tumor growth inhibition ([7]; somewhat toxic doses, 7 days, best results at about 25 mg/kg): about 85%
